Measurements taken from patent US20160101072A1, “Therapeutic uses of enzyme inhibitors” (Proximagen Limited, priority 2013, published 2016).
Marks after values point to notes of the source that are not given here.

Key:
[1] = system: lymphoid CD4-CD8- (double negative, DN) T cells; assay: Cell sorting: recruitment of lymphoid CD4-CD8- (double negative, DN) T cells into muscles of mdx mice; format: in vivo, mouse; conditions: mdx mice muscle
Text: (§1) In this example, labelled antibodies were used to assess infiltration of inflammatory myeloid and lymphoid cells into muscles of mdx mice following treatment of the mice with different doses of the glucocorticoid prednisolone, and the VAP-1 inhibitors carbidopa and benserazide. CD11b is a transmembrane glycoprotein which is expressed on the surface of granulocytes (including neutrophils and eosinophils), monocytes, NK cells, dendritic cells, tissue macrophages and subsets of T and B cells. Labelled antibody to CD11b was used to assess infiltration of inflammatory myeloid cells into muscles of mdx mice. Labelled antibody to Ly6C was used to assess infiltration of pro- and anti-inflammatory monocytes into muscles of mdx mice. Labelled antibody to CD4 and CD8a antigen was used to assess infiltration of Th cells (CD4^+CD8^-) and double negative (CD4^-CD8^-) T cells into muscles of mdx mice. A total of a ninety C57BU10ScSn-Dmdmdx/J male mice, 3 weeks of age (+/-3days), were transferred to the in vivo research laboratory in Bar Harbor, Me. Additional ten […] male mice 3 weeks of age (+/-3 days) were also transferred and served as a wild-type control group. The mice were ear notched for identification and housed in ventilated polysulfone cages with HEPA filtered air at a density of 3-4 mice per cage. The animal room was lit entirely with artificial fluorescent lighting on controlled 12 hour light/dark cycle (6 a.m. to 6 p.m. light). […] The animal room was set for 15 air exchanges per hour. Filtered tap water acidified to a pH of 2.8 to 3.2 was provided ad libitum. […] Prior to study initiation, mice were acclimated for 3 days. Mice were tested for grip strength and in the open field at ages 25 and 26 days, and drug regimen was initiated at age 27 days. Mice were monitored twice weekly for clinical observations and body weights. […] 24 hours after the second open field tests, blood was collected by retro-orbital bleeding, and mice were humanely euthanized by CO2 asphyxiation. One triceps surae was collected fresh and processed for immune cell sorting, one tibialis anterior was preserved in RNALater for RNA extraction, one whole hind limb and the diaphragm were fixed in 2% paraformaldehyde overnight at 4° C. for paraffin embedding and histology stains. For immune cell sorting, muscle samples were enzymatically and mechanically dissociated following manufacturer instructions (Skeletal Muscle Dissociation KitCatalog no. 130-098-305, Miltenyi Biotec). Cells were stained with the following antibodies: [table] Stained cells were analyzed on a BD LSR II cytometer and counts of different populations were expressed in percentage of the number of live cells counted.

[2] = system: CD11b+ myeloid cells; assay: Cell sorting: recruitment of CD11b+ myeloid cells into muscles of mdx mice; format: in vivo, mouse; conditions: mdx mice muscle; for % change compared to vehicle (CD11b+ myeloid cells) / % of viable cells (CD11b+ myeloid cells): 4 weeks
Text: as §1

[3] = system: lymphoid CD4+CD8- T cells; assay: Cell sorting: recruitment of lymphoid CD4+CD8- T cells into muscles of mdx mice; format: in vivo, mouse; conditions: mdx mice muscle
Text: as §1

[4] = system: TNF mRNA; assay: mRNA quantification (RT PCR) of TNF in muscles of mdx mice; format: in vivo, mouse; conditions: for TNF mRNA level: mdx mice muscle, GAPDH as normalizer; for effect on the level of TNF mRNA: treatment alone, mdx mouse muscle
Text: (§2) A total of a ninety C57BU10ScSn-Dmdmdx/J male mice, 3 weeks of age (+/-3days), were transferred to the in vivo research laboratory in Bar Harbor, Me. Additional ten […] male mice 3 weeks of age (+/-3 days) were also transferred and served as a wild-type control group. The mice were ear notched for identification and housed in ventilated polysulfone cages with HEPA filtered air at a density of 3-4 mice per cage. The animal room was lit entirely with artificial fluorescent lighting on controlled 12 hour light/dark cycle (6 a.m. to 6 p.m. light). […] The animal room was set for 15 air exchanges per hour. Filtered tap water acidified to a pH of 2.8 to 3.2 was provided ad libitum. […] Prior to study initiation, mice were acclimated for 3 days. Mice were tested for grip strength and in the open field at ages 25 and 26 days, and drug regimen was initiated at age 27 days. Mice were monitored twice weekly for clinical observations and body weights. […] 24 hours after the second open field tests, blood was collected by retro-orbital bleeding, and mice were humanely euthanized by CO2 asphyxiation. One triceps surae was collected fresh and processed for immune cell sorting, one tibialis anterior was preserved in RNALater for RNA extraction, one whole hind limb and the diaphragm were fixed in 2% paraformaldehyde overnight at 4° C. for paraffin embedding and histology stains. Total RNAs were extracted with a modification of the Trizol method, reverse transcribed, and mRNAs of TGFβ, and the following inflammation markers were quantified by the SYBR green method with GAPDH as a normalizer: […]

[5] = system: Mpeg1 mRNA; assay: mRNA quantification (RT PCR) of Mpeg1 in muscles of mdx mice; format: in vivo, mouse; conditions: mdx mice muscle
Text: as §2

[6] = system: CD11b+Ly6Chigh profibrotic myeloid cells (Ly6C+ monocytes); assay: Cell sorting: recruitment of CD11b+Ly6Chigh profibrotic myeloid cells into muscles of mdx mice; format: in vivo, mouse; conditions: mdx mice muscle; for % change compared to vehicle (CD11b+Ly6Chigh profibrotic myeloid cells) / % of viable cells (CD11b+Ly6Chigh profibrotic myeloid cells): 4 weeks
Text: as §1

[7] = system: CD11b+Ly6Chigh profibrotic : CD11b+Ly6Clow anti-fibrotic myeloid cells; assay: Ratio of profibrotic to anti-fibrotic myeloid cells in mdx mouse muscle; format: in vivo; conditions: both doses
Text: In this example, labelled antibodies were used to assess infiltration of inflammatory myeloid and lymphoid cells into muscles of mdx mice following treatment of the mice with different doses of the glucocorticoid prednisolone, and the VAP-1 inhibitors carbidopa and benserazide. […] Labelled antibody to CD11b was used to assess infiltration of inflammatory myeloid cells into muscles of mdx mice. Labelled antibody to Ly6C was used to assess infiltration of pro- and anti-inflammatory monocytes into muscles of mdx mice. Labelled antibody to CD4 and CD8a antigen was used to assess infiltration of Th cells (CD4^+CD8^−) and double negative (CD4^−CD8^−) T cells into muscles of mdx mice.
A total of a ninety C57BU10ScSn-Dmdmdx/J male mice, 3 weeks of age (+/−3days), were transferred to the in vivo research laboratory in Bar Harbor, Me. Additional ten C57BU10ScSnJ male mice 3 weeks of age (+/−3 days) were also transferred and served as a wild-type control group. The mice were ear notched for identification and housed in ventilated polysulfone cages with HEPA filtered air at a density of 3-4 mice per cage. […]

[8] = system: TGFβ mRNA; assay: mRNA quantification (RT PCR) of pro-fibrotic growth factor TGFβ in muscles of mdx mice; format: in vivo, mouse; conditions: for % change compared to vehicle (TGFβ mRNA) / TGFβ mRNA: mdx mice muscle; for TGFβ mRNA: GAPDH as normalizer
Text: as §2

[9] = system: Ly6C1 mRNA; assay: mRNA quantification (RT PCR) of Ly6C1 in muscles of mdx mice; format: in vivo, mouse; conditions: mdx mice muscle
Text: as §2

[10] = system: Lgals3 mRNA; assay: mRNA quantification (RT PCR) of Lgals3 in muscles of mdx mice; format: in vivo, mouse; conditions: for Lgals3 mRNA level: mdx mice muscle, GAPDH as normalizer; for effect on the level of Lgals3 mRNA: treatment alone, mdx mouse muscle
Text: as §2

[11] = system: CD53 mRNA; assay: mRNA quantification (RT PCR) of CD53 in muscles of mdx mice; format: in vivo, mouse; conditions: for CD53 mRNA level: mdx mice muscle, GAPDH as normalizer
Text: as §2

[12] = system: CD48 mRNA; assay: mRNA quantification (RT PCR) of CD48 in muscles of mdx mice; format: in vivo, mouse; conditions: for CD48 mRNA level: mdx mice muscle, GAPDH as normalizer; for effect on the level of CD48 mRNA: treatment alone, mdx mouse muscle
Text: as §2

[13] = system: IL-6 mRNA; assay: mRNA quantification (RT PCR) of IL-6 in muscles of mdx mice; format: in vivo, mouse; conditions: mdx mice muscle
Text: as §2

[14] = system: CD11b mRNA; assay: mRNA quantification (RT PCR) of CD11b in muscles of mdx mice; format: in vivo, mouse; conditions: for CD11b mRNA level: mdx mice muscle, GAPDH as normalizer
Text: as §2

[15] = system: CD11b+Ly6Clow anti-fibrotic myeloid cells (Ly6C- monocytes); assay: Cell sorting: recruitment of CD11b+Ly6Clow anti-fibrotic myeloid cells into muscles of mdx mice; format: in vivo, mouse; conditions: mdx mice muscle; for % change compared to vehicle (CD11b+Ly6Clow anti-fibrotic myeloid cells) / % of viable cells (CD11b+Ly6Clow anti-fibrotic myeloid cells): 4 weeks
Text: as §1

[16] = 100 mg/kg po twice/day, 4 weeks
[17] = doses as in the table (carbidopa 100, benserazide 20 mg/kg po twice/day; prednisolone 1 mg/kg ip once/day)
[18] = mdx mouse muscle, compared to vehicle
[19] = treatment alone, mdx mouse muscle

Compound: C[C@@](Cc1ccc(O)c(O)c1)(NN)C(=O)O [Carbidopa]
- % change compared to vehicle (lymphoid CD4-CD8- DN T cells) [1, 16]: −56.4%
- % of viable cells (lymphoid CD4-CD8- DN T cells) [1, 16]: 14.2** %
- reduction of recruitment of lymphoid DN T cells compared with vehicle [1, 17]: ~50%
- % change compared to vehicle (CD11b+ myeloid cells) ([2]; 50 mg/kg po twice/day): −55.2%
- % of viable cells (CD11b+ myeloid cells) ([2]; 50 mg/kg po twice/day): 16.3** %
- % change compared to vehicle (CD11b+ myeloid cells) ([2]; 100 mg/kg po twice/day): −49.2%
- % of viable cells (CD11b+ myeloid cells) ([2]; 100 mg/kg po twice/day): 18.5** %
- reduction of myeloid cell recruitment compared with vehicle ([2]; both carbidopa doses (columns 5 and 6 of FIG. 4)): approximately 50%
- % change compared to vehicle (lymphoid CD4+CD8- T cells) [3, 16]: −51.4%
- % of viable cells (lymphoid CD4+CD8- T cells) [3, 16]: 7.1** %
- reduction of recruitment of lymphoid CD4+CD8- T cells compared with vehicle [3, 17]: over 33.3%
- TNF mRNA level ([4]; 50 mg/kg po twice/day): 0.74
- effect on the level of TNF mRNA [4]: No significant effect
- effect on Mpeg1 mRNA level [5]: No effects
- % change compared to vehicle (CD11b+Ly6Chigh profibrotic myeloid cells) ([6]; 50 mg/kg po twice/day): −86.4%
- % of viable cells (CD11b+Ly6Chigh profibrotic myeloid cells) ([6]; 50 mg/kg po twice/day): 1.75** %
- % change compared to vehicle (CD11b+Ly6Chigh profibrotic myeloid cells) ([6]; 100 mg/kg po twice/day): −82.1%
- % of viable cells (CD11b+Ly6Chigh profibrotic myeloid cells) ([6]; 100 mg/kg po twice/day): 1.31** %
- reduction of profibrotic myeloid cell recruitment compared with vehicle ([6]; at both doses tested): over 80%
- relative levels of pro- and anti-fibrotic myeloid cells [7]: in favour of anti-fibrotic myeloid cells
- % change compared to vehicle (TGFβ mRNA) ([8]; 50 mg/kg po twice/day): −34.7%
- TGFβ mRNA ([8]; 50 mg/kg po twice/day): 0.79
- reduction of the TGFβ mRNA level (fraction in words) ([8]; treatment alone, muscle of mdx mice): over a third
- effect on Ly6C1 mRNA level [9]: No effects
- Lgals3 mRNA level ([10]; 50 mg/kg po twice/day): 0.66
- effect on the level of Lgals3 mRNA [10]: no significant effect
- CD53 mRNA level ([11]; 50 mg/kg po twice/day): 0.46**
- reduction of the level of CD53 mRNA [11, 18]: 52.6%
- CD48 mRNA level ([12]; 50 mg/kg po twice/day): 0.86
- effect on the level of CD48 mRNA [12]: no significant effect
- effect on IL-6 mRNA level [13]: No effects
- CD11b mRNA level ([14]; 50 mg/kg po twice/day): 0.58*
- reduction of the level of CD11b mRNA [14, 18]: 42%
- % change compared to vehicle (CD11b+Ly6Clow anti-fibrotic myeloid cells) ([15]; 50 mg/kg po twice/day): −49.3%
- % of viable cells (CD11b+Ly6Clow anti-fibrotic myeloid cells) ([15]; 50 mg/kg po twice/day): 13.8** %
- % change compared to vehicle (CD11b+Ly6Clow anti-fibrotic myeloid cells) ([15]; 100 mg/kg po twice/day): −41.2%
- % of viable cells (CD11b+Ly6Clow anti-fibrotic myeloid cells) ([15]; 100 mg/kg po twice/day): 16** %
- inhibition of recruitment of anti-fibrotic myeloid cells compared with vehicle ([15]; both carbidopa doses (columns 5, 6 of FIG. 5B)): less than 50%

Compound: C[C@]12C=CC(=O)C=C1CC[C@@H]1[C@@H]2[C@@H](O)C[C@@]2(C)[C@H]1CC[C@]2(O)C(=O)CO [Prednisolone, prednisolone]
- % change compared to vehicle (CD11b+ myeloid cells) ([2]; 0.2 mg/kg ip once/day): +14.8%
- % of viable cells (CD11b+ myeloid cells) ([2]; 0.2 mg/kg ip once/day): 41.8%
- % change compared to vehicle (CD11b+ myeloid cells) ([2]; 1 mg/kg ip once/day): +20.9%
- % of viable cells (CD11b+ myeloid cells) ([2]; 1 mg/kg ip once/day): 44%
- TNF mRNA level ([4]; 0.2 mg/kg ip once/day): 0.92
- effect on the level of TNF mRNA [4]: No significant effect
- effect on Mpeg1 mRNA level [5]: No effects
- % change compared to vehicle (CD11b+Ly6Chigh profibrotic myeloid cells) ([6]; 0.2 mg/kg ip once/day): +0.6%
- % of viable cells (CD11b+Ly6Chigh profibrotic myeloid cells) ([6]; 0.2 mg/kg ip once/day): 7.37%
- % change compared to vehicle (CD11b+Ly6Chigh profibrotic myeloid cells) ([6]; 1 mg/kg ip once/day): −38.3%
- % of viable cells (CD11b+Ly6Chigh profibrotic myeloid cells) ([6]; 1 mg/kg ip once/day): 4.52%
- effect on recruitment of profibrotic myeloid cells compared with vehicle ([6]; both doses): no statistically significant effect
- % change compared to vehicle (TGFβ mRNA) ([8]; 0.2 mg/kg ip once/day): 48.8%
- TGFβ mRNA ([8]; 0.2 mg/kg ip once/day): 1.80
- effect on the level of TGFβ mRNA ([8]; prednisolone alone, muscle of mdx mice): increased
- effect on Ly6C1 mRNA level [9]: No effects
- Lgals3 mRNA level ([10]; 0.2 mg/kg ip once/day): 1.2
- effect on the level of Lgals3 mRNA [10]: no significant effect
- CD53 mRNA level ([11]; 0.2 mg/kg ip once/day): 1.33
- effect on the level of CD53 mRNA [11, 19]: not significantly affected
- CD48 mRNA level ([12]; 0.2 mg/kg ip once/day): 1
- effect on the level of CD48 mRNA [12]: no significant effect
- effect on IL-6 mRNA level [13]: No effects
- CD11b mRNA level ([14]; 0.2 mg/kg ip once/day): 1.42
- effect on the level of CD11b mRNA [14, 19]: not significantly affected
- % change compared to vehicle (CD11b+Ly6Clow anti-fibrotic myeloid cells) ([15]; 0.2 mg/kg ip once/day): +0.4%
- % of viable cells (CD11b+Ly6Clow anti-fibrotic myeloid cells) ([15]; 0.2 mg/kg ip once/day): 27.3%
- % change compared to vehicle (CD11b+Ly6Clow anti-fibrotic myeloid cells) ([15]; 1 mg/kg ip once/day): +0.7%
- % of viable cells (CD11b+Ly6Clow anti-fibrotic myeloid cells) ([15]; 1 mg/kg ip once/day): 27.4%
- effect on recruitment of anti-fibrotic myeloid cells compared with vehicle ([15]; both doses): no statistically significant effect
